Tests used:
[1] = target: T1, Aβ 1-42 (Homo sapiens, UniProt P05067); experiment: Thioflavin T fluorescence assay of Aβ 1-42 fibrillization (Example 2); type: biochemical; conditions: for inhibition of β-amyloid polypeptide fibril formation: 50 μM compound, 5 μM Aβ 1-42, 24 hours at 37° C.; for concentration dependence of inhibition of fibril formation: Aβ1-42, fixed incubation time of 24 hours; for IC50: Aβ1-42 fibrillization, 24 hours, calculated by the curve equation, read-out: apparent IC50
T1 construct: Aβ 1-40 and Aβ 1-42, >98% pure) were purchased from Bachem; purchased Bachem (Bubendorf, Switzerland); host or cells: chemical synthesis
T1 sequence (P05067 672-713 limits assumed): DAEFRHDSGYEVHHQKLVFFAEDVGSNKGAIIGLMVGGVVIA
Description: (§1) Aβ solutions: Synthetic lyophilized β-amyloid polypeptides (Aβ 1-40 and Aβ 1-42, >98% pure) were purchased from Bachem (Bubendorf, Switzerland). A 100 μM Aβ stock solution was prepared by dissolving Aβ1-40 or Aβ1-42 in dimethylsulfoxide (DMSO) and sonicating the resulting solution during 1 minute to avoid pre-aggregation. Aβ solutions were prepared by immediate dilution with 10 mM phosphate-buffered saline (100 mM NaCl, 0.5 mM EDTA, pH 7.4) to a final concentration of 10 μM (containing 10% (v/v) DMSO).
(§2) Indole derivatives stock solutions were prepared by dissolving an indole derivative in DMSO, so as to achieve a concentration of 20 mM and then diluting the solution with 10 mM PBS buffer (100 mM NaCl, 0.5 mM EDTA, pH 7.4) to a final concentration of 100 μM (containing 0.5% (v/v) DMSO).
(§3) Thioflavin T fluorescence assay: Fibrillization of A[…] 1-42 polypeptide was monitored using a Thioflavin T (ThT) dye binding assay. A 10 μM Aβ solution (either Aβ1-40 or Aβ1-42) was prepared as described above and was immediately mixed with the indole derivative stock solutions (100 μM), so as to achieve a final concentration of 5 μM for Aβ and various concentrations of the indole derivative. For each measurement, ThT was added to a 0.1 ml sample, to give a final concentration of 0.3 μM ThT and 0.4 μM Aβ. The samples were incubated at 37° C. Fluorescence measurements, made after addition of the ThT solution to each sample at 37° C., were carried out using a Jobin Yvon FluoroMax-3 spectrometer (excitation 450 nm, 2.5 nm slit; emission 480 nm, 5 nm slit, integration time of 1 second). Background was subtracted from each sample. Each experiment was repeated in quadruplicate.
Inhibition of amyloid formation: The level of amyloid formation was detected using the above described Thioflavin T (ThT) dye binding assay. Fluorescence (relative intensity, measured in units of percent) of the ThT bound Aβ 1-42 remaining following 24 hours at 37° C., in the absence, and in the presence of 50 μM indole or indole derivative, was measured. Each measurement was recorded immediately after the fluorescence intensity reached a maximum value. The results obtained with representative indole derivatives, each representing a mean of four independent measurements along with an associated error bar representing a standard error, are graphically presented in FIG. 4.
Concentration Dependence of Indole Derivatives inhibition activity: To examine the inhibition efficiency of the indole derivatives, the concentration dependence of inhibition of fibril formation was studied. The fibrillization of Aβ1-42, with and without an indole derivative was measured using the ThT fluorescence assay described above at a fixed incubation time of 24 hours.

[2] = target: T2, Aβ 1-40 polypeptide (Homo sapiens, UniProt P05067); experiment: Thioflavin T fluorescence assay of Aβ 1-40 fibrillization (Example 1); type: biochemical; conditions: 10 μM compound
T2 construct: Recombinant β-amyloid (Aβ 1-40, >98% pure) polypeptide; purchased rPeptide (Athens Ga., USA)
T2 sequence (P05067 672-711 limits assumed): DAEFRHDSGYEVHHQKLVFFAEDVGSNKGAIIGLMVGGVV
Description: Fibrillization of Aβ 1-40 polypeptide was monitored using a Thioflavin T (ThT) dye binding assay. […] Fluorescence measurements, made after addition of the ThT solution to each sample at 37° C., were carried out using a Jobin Yvon FluoroMax-3 spectrometer (excitation 450 nm, 2.5 nm slit; emission 480 nm, 5 nm slit, integration time of 1 second). Background was subtracted from each sample. The level of amyloid formation was detected using the above described Thioflavin T (ThT) dye binding assay.

[3] = target: T3, Aβ1-40 (Homo sapiens, UniProt P05067); experiment: Kinetics of Aβ1-40 fibrillogenesis inhibition, ThT fluorescence assay; type: biochemical; conditions: for effect on nucleation phase (lag phase) compared with control / effect on slope of growth curve (polymerization phase): 5 μM, 25 μM and 50 μM tested
T3 construct: Synthetic lyophilized β-amyloid polypeptides (Aβ 1-40 and Aβ 1-42, >98% pure); purchased Bachem (Bubendorf, Switzerland); host or cells: chemical synthesis
T3 sequence (P05067 672-711 limits assumed): as above
Description: as §1, §2, §3
Kinetics Studies of Aβ1-40 Fibrillogenesis Inhibition: Aβ1-40, which has a slower fibrillogenesis rate [see, Jarrett et al. (1993) Biochemistry 32, 4693-4697] was used in these studies, in order to obtain better temporal resolution, assuming that a slower rate would allow more significant inhibition and a better understanding of the effect. 3-Hydroxyindole (denoted as 3HI), 4-hydroxyindole (denoted as 4HI) and indole-3-carbinol (denoted herein as I3C) were each added at concentrations of 5 μM, 25 μM, and 50 μM to a solution containing 5 μM of Aβ1-40 (prepared as described above) and the kinetics of Aβ1-40 fibrillogenesis inhibition was measured using the ThT fluorescence assay.

[4] = target: T3, Aβ1-40; experiment: AFM structural analysis of Aβ1-40 samples from kinetic studies; conditions: 50 μM compound, once control samples reached the polymerization phase
Description: Atomic force microscopy (AFM): For each experiment, a 60 μl sample of was taken for AFM measurement at three different time points correlating to the amyloidogenic kinetic curve, as detailed hereinafter. The sample was centrifuged for 1.5 minutes at 13,000 rpm and 40 μl of the supernatant was removed. The remaining 20 μl droplet of the solution was re-suspended and deposited onto freshly cleaved mica for 1.5 minutes. The substrate was washed with 160 μl of double-distilled H2O to reduce background and to eliminate salts and buffer contaminants. The mica samples were then dried at room temperature. At least four regions of the mica surface were examined to ensure that similar structures existed throughout the sample. AFM images were obtained using a Veeco NanoScope IV MultiMode AFM (Digital Instruments, Santa Barbara, USA) in tapping mode. Measurements were performed at a resonance frequency of about 321.4 kHz.
Additional structural analyses were performed using AFM measurements, performed with Aβ1-40 samples taken from the kinetic studies once the control samples reached the different fibrillogenesis phase.

[5] = target: T2, Aβ 1-40 polypeptide; experiment: Transmission electron microscopy of ThT assay samples (Example 1); conditions: 10 μM compound, sample at about 192 hours
Description: Transmission Electron Microscopy (TEM) Measurements: 10 μl samples from the ThT fluorescence assay were placed on 400-mesh copper grids (SPI supplies, West Chester Pa.) covered by carbon stabilized Formvar film. After 1 minute, excess fluid was removed, and the grids were negatively stained with 2% uranyl acetate in water for another two minutes. Microstructural features of the samples were viewed using a JEOL 1200EX electron microscope operating at 80 kV.
In order to obtain insight into the mechanism of inhibiting formation of β-amyloidpolypeptide type of amyloid fibrils, representative samples taken from the ThT fluorescence assay measurements described above after attainment of the plateau (at about 192 hours, FIG. 2), in the absence or presence of indole-3-carbinol, were viewed using electron microscopy.

[6] = test system: PC12 cells; experiment: Aβ1-40 cytotoxicity on PC12 cells, MTT assay; type: cell-based; conditions: for inhibitory effect on Aβ1-40 cytotoxicity: both assays (T=0 and after 7 days incubation); for elevation of viability rate of PC12 cells compared with control: 5 μM Aβ1-40, MTT after 24 hours
Description: Cell culture: PC12 pheochromocytoma cell line, a cultured benign tumor of the sympathetic nervous system, was routinely grown in Dulbecco's Modified Eagle Medium (DMEM) supplemented with 8% (v/v) fetal calf serum, 8% (v/v) horse serum, 100 U/ml penicillin, 100 U/ml streptomycin, and 2 mM L-glutamine (Biological industries, Israel). The cells were maintained at 37° C. in a humidified atmosphere containing 5% CO2. Cell cytotoxicity assay: PC-12 cells (3×10^5 cells/ml) were cultured in 96-well microplates (100 μl/well) and were incubated overnight at 37° C. The wells were then washed once with serum free-DMEM, so as to exclude the effect of the serum. To each well 100 μl of 5 μM Aβ1-40 (prepared from a stock solution of 0.5 mM in 10 mM NaOH) and an indole derivative at various concentrations were added. Each determination was made in quadruplicate. Following incubation for 24 hours at 37° C., cell viability was evaluated using the MTT assay (as described in Hansen et al. (1989) J. Immunol. Methods 119, 203-210). The effect of the indole derivatives on the formation of cytotoxic amyloid assemblies was determined by measuring the toxicity of the formed Aβ on pheochromocytoma cell line cultures (PC12) in the presence and absence of the indole derivatives. […] Cell viability was determined after 24 hours using the MTT assay. Cells incubated with only 5 μM Aβ1-40 served as the control.

[7] = target: T3, Aβ1-40; experiment: TEM ultrastructural analysis of Aβ1-40 samples from kinetic studies
Description: Transmission Electron microscopy (TEM): A 10 μl sample of the ThT fluorescence assay was placed on a 400 mesh copper grid covered by carbon-stabilized Formvar film (SPI Supplies, West Chester, Pa.). After 1.5 minutes, excess fluid was removed and the grids were negatively stained for 2 minutes with 10 μl of 2% uranyl acetate solution. Excess fluid was removed and the samples were viewed using a JEOL 1200EX electron microscope operating at 80 kV. Ultrastructural Analysis of amyloid fibril formation: The effect of the indole derivatives on the ultrastructural properties of the assembled Aβ was first evaluated by TEM measurements. Thus, TEM analysis was performed with samples of Aβ1-40 obtained from the kinetic studies described above after incubation for 14 days.

[8] = 50 μM compound, 5 μM Aβ1-40, endpoint of experiment, read-out: inhibition level at final equilibrium phase
[9] = 50 μM compound, 14 days incubation

Compound	inhibition of β-amyloid polypeptide fibril formation [1]	effect on nucleation phase (lag phase) compared with control ([3]; 5 μM Aβ1-40)	effect on slope of growth curve (polymerization phase) ([3]; 5 μM Aβ1-40)	inhibition at 50 µM [3, 8]	amyloid fibril formation by AFM [4]	concentration dependence of inhibition of fibril formation [1]	IC50 [1]	inhibitory effect on Aβ1-40 cytotoxicity [6]	fibril ultrastructure by TEM [7, 9]	further results
Oc1cc2ccccc2[nH]1 [2-hydroxyindole]	significantly reduced inhibition									
OCc1c[nH]c2ccccc12 [indole-3-carbinol]	significantly inhibited	no effect on the nucleation phase	effect on the slope of the growth curve only at 50 μM	~50%	small amounts of amyloid fibrils in the form of long wires	only at high concentrations and showed no dose-dependency	~200 µM	No significant inhibition of cytotoxicity	smaller amounts of amyloid fibril aggregates	level of fluorescence at the plateau compared to non-inhibited Aβ 1-40 ([2]; 5 μM Aβ 1-40): about a third; time to attainment of fluorescence plateau ([2]; 5 μM Aβ 1-40, 37° C., without compound about 200 hours): about 300 hours; levels of ThT fluorescence following about 100 hours ([2]; 5 μM Aβ 1-40, remaining duration of assay): significantly lower levels of fluorescence; lag-time of fibrillization ([2]; 5 μM Aβ 1-40, control lag-phase about 100 hours): significantly extended; fibril morphology by electron microscopy [5]: significantly shorter and less dense fiber type material
Oc1cccc2[nH]ccc12 [4-hydroxyindole]	significantly inhibited				no fibrils	dose-dependent inhibition pattern	~85 µM	most significant inhibitory effect		effect on nucleation phase (lag phase) ([3]; 5 μM compound, 5 μM Aβ1-40): less significant; slope of growth curve (polymerization phase) ([3]; 5 μM compound, 5 μM Aβ1-40): the most sharp; inhibition at 5 µM ([3]; 5 μM compound, 5 μM Aβ1-40, endpoint of experiment, read-out: inhibition level at final equilibrium phase): ~60%; effect on nucleation phase (lag phase) ([3]; 25 μM compound, 5 μM Aβ1-40): significantly longer nucleation phase; inhibition level at final equilibrium phase ([3]; 25 μM compound, 5 μM Aβ1-40, endpoint of experiment): almost complete; effect on nucleation phase (lag phase) ([3]; 50 μM compound, 5 μM Aβ1-40): significantly longer nucleation phase; inhibition level at final equilibrium phase ([3]; 50 μM compound, 5 μM Aβ1-40, endpoint of experiment): almost complete; inhibition level at final equilibrium phase, comparison among compounds ([3]; all the tested concentrations): highest inhibition level; protective effect, concentration dependence ([6]; 0.5 μM to 50 μM, 5 μM Aβ1-40, solution incubated 7 days): dose-dependent; minimum concentration required for significant inhibition ([6]; 5 μM Aβ1-40, solution incubated 7 days): 2.5 µM; elevation of viability rate of PC12 cells compared with control ([6]; 25 μM compound): about 25%; elevation of viability rate of PC12 cells compared with control ([6]; 50 μM compound): about 25%; toxic effect of Aβ1-40 ([6]; 50 μM compound, 5 μM Aβ1-40, solution incubated 7 days): completely blocked; fibril ultrastructure by TEM ([7]; 5 μM or more of compound): no amyloid fibrils; fibril ultrastructure by TEM ([7]; 25 μM compound, 14 days incubation): devoid of fibrils and contained only a minor amount of small fibrils
Oc1ccc2[nH]ccc2c1 [5-hydroxyindole]	significantly reduced inhibition									
Oc1c[nH]c2ccccc12 [3-hydroxyindole]	significantly inhibited	no effect on the nucleation phase	dose-dependent effect	~60%	small aggregates that interacted with the amyloid fibrils	dose-dependent inhibition pattern	~100 µM	no anti-cyclotoxic effect	significant number of amorphous aggregates showing a congested form	inhibition at 25 µM ([3]; 25 μM compound, 5 μM Aβ1-40, endpoint of experiment, read-out: inhibition level at final equilibrium phase): ~40%; improvement of PC12 survival rate compared with control ([6]; only at T=0 (solution added immediately), 5 μM Aβ1-40): about 25%

Reference: patent US8889729B2, “Compositions for treating amyloid associated diseases” (Tel Aviv University Future Technology Development L.P., priority 2004, dated 2014)
